Among the test systems are A549; ACHN; CAKI-1; CCRF-CEM; HL-60; HOP-62; HT-29; MCF7; MDA-MB-231; NCI-H23; NCI-H522; NCI/ADR-RES; OVCAR-8; RXF 393; SF-539; SK-MEL-2; SK-OV-3; SN12C; UO-31.
What all share (test): growth of human tumour cells (NCI), 48 h

SMILES strings stand for the structures.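 Interpolation was linear, between the two tested concentrations surrounding the appropriate level; five concentrations were tested over 48 hours in 96-well plates. Abbreviation: GI50, concentration required for 50% inhibition of growth.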 Calls of active or inactive are those of the source. Rule as the data show it: active = GI50 up to about 1.1 µM and inactive = higher.

In the case of `Cc1nc(Cl)c(C)c(Cl)n1`, the GI50 in the assay on A549 was > 100 µM (inactive); with ACHN, > 100 µM (inactive); in the assay with CAKI-1, 0.0216 µM (active); with CCRF-CEM, 18.7 µM (inactive); in the assay with HL-60, 8.59 µM (inactive); in the assay with HOP-62, > 77.4 µM (inactive). The GI50 in the assay with HT-29 is > 44.7 µM (inactive); in the assay on MCF7 it was > 84.5 µM (inactive); with MDA-MB-231, > 100 µM (inactive); in the assay with NCI-H23 it was 35.3 µM (inactive); in the assay with NCI-H522, < 0.01 µM (active); in the assay on NCI/ADR-RES, > 53 µM (inactive). Also, the GI50 in the assay on OVCAR-8, in the assay on RXF 393, with SF-539, in the assay on SK-MEL-2, in the assay with SK-OV-3 and in the assay on SN12C was > 100 µM (inactive) throughout.
Take `COc1ccc(-c2cc(O)c3c(C)ccnc3n2)cc1`: the GI50 in the assay on A549 is 10.3 µM (inactive); in the assay with ACHN, 21.2 µM (inactive); in the assay with CAKI-1 it was 33.8 µM (inactive); with CCRF-CEM it was 17.8 µM (inactive); with HOP-62, 20.7 µM (inactive); in the assay with HT-29, 4.93 µM (inactive). Moreover, the GI50 was 2.03 µM (inactive) in the assay on MCF7; 49.5 µM (inactive) in the assay with MDA-MB-231; 19 µM (inactive) in the assay on NCI-H23; 8.13 µM (inactive) with NCI-H522; 20.2 µM (inactive) with NCI/ADR-RES; 25.9 µM (inactive) in the assay with OVCAR-8. For the same compound, the GI50 in the assay with RXF 393 is 19.9 µM (inactive); in the assay on SF-539 it was 17.4 µM (inactive); in the assay with SK-MEL-2, 7.6 µM (inactive); in the assay on SK-OV-3, 23 µM (inactive); with SN12C, 27.7 µM (inactive); with UO-31 it was 27.8 µM (inactive).
Turning to `Cc1c(C)c2ccc(OCC(O)COC(C)C)c(C)c2oc1=O` (centres undefined), the GI50 is 34.7 µM (inactive) with A549; 44.3 µM (inactive) in the assay with ACHN; 41.7 µM (inactive) in the assay with CAKI-1; 27.5 µM (inactive) in the assay on CCRF-CEM; 35 µM (inactive) in the assay on HL-60; 28.7 µM (inactive) in the assay with HOP-62. For the same compound, the GI50 was 31 µM (inactive) in the assay with HT-29; 24.4 µM (inactive) in the assay with MCF7; 91.6 µM (inactive) with NCI-H23; 17.2 µM (inactive) in the assay with NCI-H522; 41.5 µM (inactive) in the assay with NCI/ADR-RES; 28.2 µM (inactive) in the assay with OVCAR-8. Also, the GI50 in the assay on SK-MEL-2 is 20.1 µM (inactive); in the assay on SK-OV-3 it was > 100 µM (inactive); in the assay with UO-31, 41.8 µM (inactive).
For `CC(=O)OC1COC(N2c3ccccc3[C@@H]3CCc4c([nH]c5ccccc45)[C@@H]32)C(OC(C)=O)C1OC(C)=O.CC(=O)OC1COC(N2c3ccccc3[C@H]3CCc4c([nH]c5ccccc45)[C@H]32)C(OC(C)=O)C1OC(C)=O` (some centres undefined), the GI50 in the assay with A549 is 16.7 µM (inactive); in the assay on CAKI-1, 27.7 µM (inactive); with CCRF-CEM, 26.5 µM (inactive); with HOP-62, > 100 µM (inactive); in the assay on HT-29 it was 62.2 µM (inactive); in the assay with MDA-MB-231 it was 14 µM (inactive). Further, the GI50 in the assay on NCI-H23 was 57.8 µM (inactive); in the assay with NCI-H522, 12.8 µM (inactive); in the assay with SK-MEL-2, 44.1 µM (inactive); in the assay with SK-OV-3, 44.9 µM (inactive); in the assay with SN12C, 59.3 µM (inactive); with UO-31 it was 9.79 µM (inactive).
For the compound `CCOC(=O)NC(Nc1ncccn1)(C(F)(F)F)C(F)(F)F`, the GI50 in the assay on ACHN, in the assay on CCRF-CEM, with HL-60, with HOP-62, with HT-29 and in the assay with MCF7 was > 100 µM (inactive) each time. Moreover, the GI50 in the assay with MDA-MB-231, in the assay with NCI-H23, with NCI-H522, in the assay on RXF 393, with SF-539 and in the assay with SK-MEL-2 was > 100 µM (inactive) each time. Moreover, the GI50 with SK-OV-3, in the assay on SN12C and in the assay on UO-31 was > 100 µM (inactive) throughout.
For `CCOc1ncn(-c2ccc(NC(=S)Nc3ncccn3)cc2)n1`, the GI50 in the assay with A549 is 32.1 µM (inactive); with CCRF-CEM it was 20 µM (inactive); with HL-60, 16.2 µM (inactive); in the assay on HOP-62, > 100 µM (inactive); with HT-29, 13 µM (inactive); in the assay on MCF7, 32.7 µM (inactive). For the same compound, the GI50 was 24.8 µM (inactive) in the assay with MDA-MB-231; 81.5 µM (inactive) in the assay on NCI-H23; 17.4 µM (inactive) with NCI-H522; 24.8 µM (inactive) in the assay on OVCAR-8; 15.4 µM (inactive) in the assay on SF-539; > 100 µM (inactive) in the assay on SK-OV-3. Besides, the GI50 in the assay on SN12C was 51.1 µM (inactive); in the assay with UO-31, 18.6 µM (inactive).
Regarding `Fc1nc(Sc2ncnc3nc[nH]c23)nc(-c2c3ccccc3c3sc4ccccc4n23)n1`, the GI50 is > 100 µM (inactive) with A549; > 100 µM (inactive) with ACHN; > 100 µM (inactive) in the assay with CAKI-1; 40.7 µM (inactive) in the assay on CCRF-CEM; > 100 µM (inactive) with HL-60; > 100 µM (inactive) with HOP-62. Moreover, the GI50 with HT-29, in the assay with MCF7, in the assay with MDA-MB-231, in the assay on NCI-H23, in the assay on NCI-H522 and in the assay on NCI/ADR-RES was > 100 µM (inactive) in each case. Also, the GI50 in the assay on OVCAR-8, in the assay on RXF 393, with SF-539, in the assay with SK-MEL-2, in the assay with SK-OV-3 and in the assay on SN12C was > 100 µM (inactive) each time. In addition, the GI50 in the assay on UO-31 is > 100 µM (inactive).
For `CCN1c2ccccc2-n2c(C)nnc2-c2c(-c3ccccc3)n[nH]c21`, the GI50 is 22.4 µM (inactive) in the assay with A549; 14.3 µM (inactive) in the assay on ACHN; > 10 µM (inactive) in the assay on CAKI-1; 17.5 µM (inactive) with CCRF-CEM; 12.4 µM (inactive) with HL-60; 24.5 µM (inactive) in the assay with HT-29. The GI50 in the assay on MCF7 is > 10 µM (inactive); in the assay with MDA-MB-231, 18.9 µM (inactive); with NCI-H23, 35.5 µM (inactive); in the assay on NCI-H522 it was 2.25 µM (inactive); with NCI/ADR-RES, 11.9 µM (inactive); in the assay on OVCAR-8 it was 24.7 µM (inactive). Further, the GI50 was 44.5 µM (inactive) with RXF 393; 43.4 µM (inactive) in the assay with SF-539; 19.7 µM (inactive) in the assay on SK-MEL-2; 57.9 µM (inactive) in the assay with SK-OV-3; 24.4 µM (inactive) with SN12C; 44.8 µM (inactive) in the assay with UO-31.
Turning to `CC(=O)c1c(-c2ccco2)c(C#N)c(=S)n(C2OC(CO)C(O)C(O)C2O)c1-c1ccccc1` (centres undefined), the GI50 was > 100 µM (inactive) in the assay on A549; > 100 µM (inactive) in the assay with ACHN; > 100 µM (inactive) with CAKI-1; 43.3 µM (inactive) in the assay with CCRF-CEM; 41.2 µM (inactive) in the assay on HL-60; 47.6 µM (inactive) in the assay on HOP-62. The GI50 in the assay with HT-29 is > 100 µM (inactive); in the assay on MCF7, 90.2 µM (inactive); in the assay with MDA-MB-231, > 100 µM (inactive); in the assay on NCI-H23 it was 31.8 µM (inactive); in the assay on NCI/ADR-RES, 55.1 µM (inactive); in the assay with OVCAR-8 it was 81.8 µM (inactive). Moreover, the GI50 in the assay on RXF 393 is 37 µM (inactive); in the assay with SF-539, 45.2 µM (inactive); in the assay with SK-OV-3, > 100 µM (inactive); with SN12C, 54.5 µM (inactive); in the assay on UO-31, 51.2 µM (inactive).
Turning to `CCOC(=O)CCN1C(=O)c2c(NC(=O)C(=O)O)cccc2S1(=O)=O`, the GI50 in the assay with A549, in the assay with ACHN, with CAKI-1, in the assay with CCRF-CEM, in the assay with HL-60 and with HOP-62 was > 100 µM (inactive) throughout. The GI50 in the assay with HT-29, in the assay on MCF7, in the assay on MDA-MB-231, in the assay with NCI-H23, with NCI-H522 and in the assay on NCI/ADR-RES was > 100 µM (inactive) throughout. Moreover, the GI50 with OVCAR-8, in the assay on RXF 393, in the assay on SK-MEL-2, in the assay on SK-OV-3, in the assay with SN12C and with UO-31 was > 100 µM (inactive) throughout.
As to `CC(C)c1ccc(/C=C2\CSCC3=C2N=C2SCC(=O)N2C3c2ccc(C(C)C)cc2)cc1` (centres undefined), the GI50 with A549 is > 100 µM (inactive); in the assay on ACHN, > 100 µM (inactive); with CAKI-1, > 100 µM (inactive); with CCRF-CEM, 68.1 µM (inactive); in the assay on HL-60, > 100 µM (inactive); in the assay on HOP-62, > 100 µM (inactive). The GI50 in the assay with HT-29, in the assay on MCF7, in the assay on MDA-MB-231, with NCI-H23, in the assay with NCI/ADR-RES and with OVCAR-8 was > 100 µM (inactive) throughout. The GI50 was > 100 µM (inactive) in the assay on SF-539; > 100 µM (inactive) in the assay on SK-MEL-2; > 100 µM (inactive) in the assay on SK-OV-3; 92.7 µM (inactive) in the assay on SN12C; 40.4 µM (inactive) in the assay on UO-31.
Turning to `CCc1c(-c2ccc(OC)cc2)oc(OC)c(C)c1=O`, the GI50 with A549 is 79.1 µM (inactive); in the assay on ACHN it was 42.3 µM (inactive); in the assay on CAKI-1, 99.1 µM (inactive); in the assay on CCRF-CEM, 41 µM (inactive); in the assay with HOP-62, > 100 µM (inactive); with HT-29, 91.4 µM (inactive). For the same compound, the GI50 in the assay on MCF7 was 79.1 µM (inactive); in the assay on MDA-MB-231, 75.7 µM (inactive); in the assay with NCI-H23, > 100 µM (inactive); in the assay with NCI-H522 it was 47.4 µM (inactive); with NCI/ADR-RES, 49 µM (inactive); in the assay on OVCAR-8 it was > 100 µM (inactive). Moreover, the GI50 in the assay with RXF 393 is > 100 µM (inactive); in the assay on SF-539 it was > 100 µM (inactive); in the assay with SK-MEL-2 it was > 100 µM (inactive); with SK-OV-3, > 100 µM (inactive); in the assay on SN12C it was > 100 µM (inactive); with UO-31 it was 64.6 µM (inactive).

For the origin of these results see ChEMBL document CHEMBL1201862, “PubChem BioAssay data set” (2004).
